Data published in patent US11427575B2, “Antitumor compound for activating JWA gene and degrading HER2, preparation method thereof, and application thereof” (SIMCERE PHARMACEUTICAL CO., LTD., priority 2019, dated 2022).

Test system: promoter of JWA gene
Experiment: Luciferase reporter gene under control of JWA gene promoter in HBE cells (high-throughput screening)
Format: cell-based, human
Conditions: 48 h
Excerpt: High-throughput screening (HTS) was used to identify the human bronchial epithelial (HBE) cells stably transfected with a DNA construct with a luciferase gene under control of a 2,000 bp long promoter of JWA gene.
FIG. 1 is a sequence containing the 2000 bp promoter sequence of JWA gene that was used for a luciferase reporter gene plasmid construction.

Row | Structure (SMILES) | fluorescence intensity of reporter gene (0.05 μg/mL) | fluorescence intensity of reporter gene (0.10 μg/mL) | fluorescence intensity of reporter gene (0.21 μg/mL) | fluorescence intensity of reporter gene (0.41 μg/mL) | fluorescence intensity of reporter gene (0.83 μg/mL) | fluorescence intensity of reporter gene (1.65 μg/mL) | fluorescence intensity of reporter gene (3.30 μg/mL)
1 | COc1ccc(OC)c2sc(Nc3nc4c(F)cccc4s3)nc12 [JAC1014, N-(4-fluorobenzoyl (d)thiazole-2-group)-4,7-dimethoxy benzozoyl (d) thiazole-2-amine] | 13835.33 | 14254.00 | 15262.67 | 18680.00 | 22088.00 | 28702.00 | 37664.67
2 | COc1cc(OC)c2nc(Nc3nc4c(F)cccc4s3)sc2c1 [JAC1015, N-(4-fluorobenzoyl (d)thiazole-2-group)-4,6-dimethoxy benzozoyl (d) thiazole-2-amine] | 14335.33 | 15573.33 | 18260.67 | 22168.67 | 28162.67 | 30168.67 | 37663.33
3 | COc1cccc2sc(Nc3nc4c(F)ccc(F)c4s3)nc12 [JAC1011, 4,7-difluoro-n-(4-methoxybenzo-thiazole-2-group) benzoylthiazole-2-amine] | 13255.33 | 13553.33 | 15397.33 | 19835.00 | 25886.67 | 31413.33 | 39676.33
4 | COc1ccc(OC)c2sc(Nc3nc4c(C(F)(F)F)cccc4s3)nc12 [JAC1016, 4,7-dimethoxyn-(4-(trifluoromethyl)benzene (d)thiazole-2-group) benzene (d) thiazole-2-amine] | 14360.00 | 16238.00 | 19226.00 | 24518.00 | 28746.00 | 32253.33 | 36361.67
5 | COc1cccc2sc(Nc3nc4c(C(F)(F)F)cccc4s3)nc12 [JAC1013, 4-methoxy-N-(4-(trifluoromethyl)benzo (d)thiazole-2-group) benzo (d) thiazole-2-amine] | 13315.33 | 12346.00 | 14926.00 | 16036.67 | 20014.00 | 26261.67 | 35332.33
6 | COc1cc(OC)c2nc(Nc3nc4c(C(F)(F)F)cccc4s3)sc2c1 [JAC1017, 4,6-dimethoxyn-(4-(trifluoromethyl)benzo (d)thiazole-2-group) benzo (d) thiazole-2-amine] | 12910.00 | 13086.67 | 14460.00 | 17188.00 | 22680.00 | 28406.00 | 37426.00
7 | COc1cccc2sc(Nc3nc4c(F)cc(F)cc4s3)nc12 [JAC1012, 4,6-difluoro-n-(4-methoxylbenzene (d)thiazole-2-group) benzene (d) thiazole-2-amine] | 13448.67 | 13518.67 | 16205.00 | 19768.67 | 25237.33 | 33228.00 | 41139.33
